The values that follow come from patent publication US20100305101A1, “Leptin genotype and ß-adrenergic agonists” (priority 2009, published 2010).

Where a name gives a salt, the structure may show the parent alone.

Assay [1] can be described thus: Feedlot trial of leptin Arg25Cys genotype x Zilpaterol Hydrochloride administration (Cactus Research). It is filed as in vivo, cattle. The conditions noted are these: for daily dry matter intake (DDMI) during ZH treatment: last 24 days on feed; for % USDA stamped quality grade Choice+Prime, effect of ZH administration: vs no ZH. The protocol: In a trial completed at a private research facility in Texas, USA (Cactus Research, Amarillo Tex.) leptin genotype was assessed for potential interaction with Zilpaterol Hydrochloride (ZH). The trial consisted of 4,279 animals and occurred from summer of 2008 and carried through to spring of 2009. The trial was conducted as a randomized complete block design with approximately 90 animals being placed into pens based on leptin genotype and randomly assigned to drug treatment with pen being the experimental unit. Treatment structure was a 3×2 factorial including three letting genotypes (CC, CT and TT) and two drug treatments (zero control and drug treatment). Pens were blocked by time, specifically arrival date of the animal to the feedlot. Each block was slaughtered on the same day, and the complete process replicated eight times resulting in eight blocks. Below is a schematic summary of the trial design.
Upon arrival into the feedlot animals were individually weighed and back fat was measured using ultrasound. These measured were also taken 65, days on feed, and then one week prior to ZH treatment and 2-3 days prior to slaughter. All cattle were slaughtered and USDA carcass data were measured. Growth data were fitted to a non-linear growth model.
Backfat was measure by ultrasound at: • 1) Arrival • 2) 65 days on feed • 3) 1 week prior to zilpaterol initiation • 4) 2-3 days prior to slaughter 8 total blocks, 6 treatment pens per block, and 4,179 head total (avg initial wt=875 lbs) Within blocks, all treatments were killed on the same day (avg days on feed=129

For assay [2] the following is noted: RH 300 mg/steer/day, ZH 6 mg/steer/day; cited from earlier work.
The test system of assay [3] is B-AR's. The conditions noted are these: swine; within the first 7 days of treatment with RH; cited from earlier work.

As to `CC(C)N[C@@H]1CCn2c(=O)[nH]c3cccc(c32)[C@H]1O` (racemic) [ZH, Zilpaterol Hydrochloride], in assay [1] (CC and CT genotype animals), the “hot carcass weight (HCW) gain response to ZH administration” value was “largest response”. Besides, in assay [1] (CC genotype animals), the “% empty body fat (% EBF) change when fed ZH” value was “smallest reduction”; the “marbling score, effect of ZH administration” value is on record as “slight reduction”; the “daily dry matter intake (DDMI) during ZH treatment” value is on record as “no change”; the “% USDA stamped quality grade Choice+Prime, effect of ZH administration” value was “unaffected”. The “daily dry matter intake (DDMI) during ZH treatment” value in assay [1] (CT and TT genotype animals) is given as “significant reduction”. In addition, in assay [1] (TT and CT genotype animals), the “marbling score, effect of ZH administration” value is reported as “much greater reduction”; the “rib eye area (REA) gain with ZH administration” value is listed as 1.4 square inches; the “% USDA stamped quality grade Choice+Prime, effect of ZH administration” value is reported as “significant reductions”. In assay [1] (TT genotype animals), the “% empty body fat (% EBF) change when fed ZH” value was “largest reduction” and the “hot carcass weight (HCW) gain response to ZH administration” value was “lowest response”. In assay [2], the “LM (Longissimus Muscle) area” value is “larger”; the “sheer force and toughness of the muscle tissue” value is given as “increased”.
On to `CC(CCc1ccc(O)cc1)NCC(O)c1ccc(O)cc1` (stereo not shown) [RH, Ractopamine Hydrochloride], for which, in assay [2], the “LM (Longissimus Muscle) area” value was “no effect”; the “sheer force and toughness of the muscle tissue” value was “increased”. Moreover, the “B-AR down-regulation in adipose tissue” value in assay [3] is reported as roughly 50%.
